According to patent US10947252B2, “Inhibitors of KEAP1-Nrf2 protein-protein interaction” (Janssen Pharmaceutica NV, priority 2018, dated 2021):

Assays:
[1] = biological target: Kelch domain of human KEAP1 (321-624 aa) (Homo sapiens (Human), UniProt Q14145); experiment: KEAP1 KELCH ThermoFluor binding assay; details: KEAP Kelch […], 1,8-ANS, pH 7.0, average of results obtained, read-out: Tf Kd;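 note: Ligand-induced melting temperature shift of E. coli-expressed KEAP1 Kelch protein, Kd estimated from concentration-response curves of ΔTm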
Chain of Kelch domain of human KEAP1 (321-624 aa) (Q14145 321-624): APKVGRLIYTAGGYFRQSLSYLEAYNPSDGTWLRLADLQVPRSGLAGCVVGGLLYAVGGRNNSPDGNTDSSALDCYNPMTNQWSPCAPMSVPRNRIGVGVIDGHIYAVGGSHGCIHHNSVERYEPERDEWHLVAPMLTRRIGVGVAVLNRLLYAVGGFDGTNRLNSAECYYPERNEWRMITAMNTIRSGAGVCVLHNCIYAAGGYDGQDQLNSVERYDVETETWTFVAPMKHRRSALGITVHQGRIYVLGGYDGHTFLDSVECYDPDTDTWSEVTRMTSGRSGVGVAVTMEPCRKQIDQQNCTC

[2] = tested on: Glo-Response ARE-luc2P HEK293 cell line; experiment: ARE luciferase reporter cell-based assay; details: Homo sapiens, HEK293, 24 h, average of results obtained;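 note: luciferase signal tracks Nrf2 activation of the ARE once compounds disrupt KEAP1-Nrf2 binding, read with One-Glo reagent, DMSO serving as low control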

SMILES	Kd [1]	EC50 [2]
Cc1cnc2c(c1)S(=O)(=O)N(Cc1cc([C@H](c3ccc4c(nnn4C4CC4)c3C)C(C)(C)C(=O)O)ccc1C)CC1(CNC1)O2 (single isomer, unassigned) [Example 645, (*R)-3-(1-Cyclopropyl-4-methyl-1H-benzo[d][1,2,3]triazol-5-yl)-2,2-dimethyl-3-(4-methyl-3-((8′-methyl-1′,1′-dioxidospiro[azetidine-3,4′-pyrido[2,3-b][1,4,5]oxathiazepin]-2′(3′H)-yl)methyl)phenyl)propanoic Acid]	< 1 nM	1.5 nM
Cc1ccc([C@H](c2ccc3c(nnn3C3CC3)c2C)C(C)(C)C(=O)O)cc1CN1CC2(CCNCC2)Oc2ncccc2S1(=O)=O (single isomer, unassigned) [Example 647, (*R)-3-(1-Cyclopropyl-4-methyl-1H-benzo[d][1,2,3]triazol-5-yl)-3-(3-((1′,1′-dioxidospiro[piperidine-4,4′-pyrido[2,3-b][1,4,5]oxathiazepin]-2′(3′H)-yl)methyl)-4-methylphenyl)-2,2-dimethylpropanoic Acid]	< 1 nM	11.6 nM
Cc1cnc2c(c1)S(=O)(=O)N(Cc1cc([C@H](c3ccc4c(nnn4C4CC4)c3C)C(C)(C)C(=O)O)ccc1C)CC1(CCNCC1)O2 (single isomer, unassigned) [Example 649, (*R)-3-(1-Cyclopropyl-4-methyl-1H-benzo[d][1,2,3]triazol-5-yl)-2,2-dimethyl-3-(4-methyl-3-((8′-methyl-1′,1′-dioxidospiro[piperidine-4,4′-pyrido[2,3-b][1,4,5]oxathiazepin]-2′(3′)-yl)methyl)phenyl)propanoic Acid]	1450 nM	4750 nM
Cc1cnc2c(c1)S(=O)(=O)N(Cc1cc([C@@H](c3ccc4c(nnn4C4CC4)c3C)C(C)(C)C(=O)O)ccc1C)CC1(CCNCC1)O2 (single isomer, unassigned) [Example 650, (*S)-3-(1-Cyclopropyl-4-methyl-1H-benzo[d][1,2,3]triazol-5-yl)-2,2-dimethyl-3-(4-methyl-3-((8′-methyl-1′,1′-dioxidospiro[piperidine-4,4′-pyrido[2,3-b][1,4,5]oxathiazepin]-2′(3′H)-yl)methyl)phenyl)propanoic Acid]	< 1 nM	4.36 nM
Cc1ncc([C@@H](c2ccn3c(C(F)(F)F)nnc3c2C)C(C)(C)C(=O)O)cc1CN1C[C@@H]2CCCCN2c2ncc(C#N)cc2S1(=O)=O (single isomer, unassigned) [Example 655, (*R)-3-(5-(((*S)-3-Cyano-5,5-dioxido-7,7a,8,9,10,11-hexahydro-6H-dipyrido[2,1-d:2′,3′-f][1,2,5]thiadiazepin-6-yl)methyl)-6-methylpyridin-3-yl)-2,2-dimethyl-3-(8-methyl-3-(trifluoromethyl)-[1,2,4]triazolo[4,3-a]pyridin-7-yl)propanoic Acid]	< 1 nM	138 nM
Cc1ncc([C@H](c2ccn3c(C(F)(F)F)nnc3c2C)C(C)(C)C(=O)O)cc1CN1C[C@@H]2CCCCN2c2ncc(C#N)cc2S1(=O)=O (single isomer, unassigned) [Example 657, (*S)-3-(5-(((*S)-3-Cyano-5,5-dioxido-7,7a,8,9,10,11-hexahydro-6H-dipyrido[2,1-d:2′,3′-f][1,2,5]thiadiazepin-6-yl)methyl)-6-methylpyridin-3-yl)-2,2-dimethyl-3-(8-methyl-3-(trifluoromethyl)-[1,2,4]triazolo[4,3-a]pyridin-7-yl)propanoic Acid]	< 1 nM	75 nM
Cc1ccc([C@H](c2ccn3c(C(F)(F)F)nnc3c2C)C(C)(C)C(=O)O)cc1CN1CC2(CC2)Oc2nc(OCCN3CCCC3)c(C)cc2S1(=O)=O (single isomer, unassigned) [Example 658, (*R)-2,2-dimethyl-3-(4-methyl-3-((8′-methyl-1′,1′-dioxido-7′-(2-(pyrrolidin-1-yl)ethoxy)spiro[cyclopropane-1,4′-pyrido[2,3-b][1,4,5]oxathiazepin]-2′(3′H)-yl)methyl)phenyl)-3-(8-methyl-3-(trifluoromethyl)-[1,2,4]triazolo[4,3-a]pyridin-7-yl)propanoic Acid]	1210 nM	6050 nM
Cc1ccc([C@H](c2ccc3c(nnn3C3CC3)c2C)C(C)(C)C(=O)O)cc1CN1CC2(CC2)Oc2nc(N[C@@H](C)CN3CCCCC3)c(C)cc2S1(=O)=O (single isomer, unassigned) [Example 660, (*R)-3-(1-Cyclopropyl-4-methyl-1H-benzo[d][1,2,3]triazol-5-yl)-2,2-dimethyl-3-(4-methyl-3-((8′-methyl-1′,1′-dioxido-7′-(((S)-1-(piperidin-1-yl)propan-2-yl)amino)spiro[cyclopropane-1,4′-pyrido[2,3-b][1,4,5]oxathiazepin]-2′(3′H)-yl)methyl)phenyl)propanoic Acid]	681 nM	235 nM
Cc1ccc([C@H](c2ccn3c(C(F)(F)F)nnc3c2C)C(C)(C)C(=O)O)cc1CN1CC2(CC2)Oc2nc(OCCN3CCC(F)CC3)c(C)cc2S1(=O)=O (single isomer, unassigned) [Example 662, (*S)-3-(3-((7′-(2-(4-fluoropiperidin-1-yl)ethoxy)-8′-methyl-1′,1′-dioxidospiro[cyclopropane-1,4′-pyrido[2,3-b][1,4,5]oxathiazepin]-2′(3′H)-yl)methyl)-4-methylphenyl)-2,2-dimethyl-3-(8-methyl-3-(trifluoromethyl)-[1,2,4]triazolo[4,3-a]pyridine-7-yl)propanoic Acid]	568 nM	308 nM
Cc1ccc([C@@H](c2ccn3c(C4CC4)nnc3c2C)C(C)(C)C(=O)O)cc1CN1CC2(CC2)Oc2nc(OCCN3CCCC3)c(C)cc2S1(=O)=O (single isomer, unassigned) [Example 663, (*S)-3-(3-Cyclopropyl-8-methyl-[1,2,4]triazolo[4,3-a]pyridin-7-yl)-2,2-dimethyl-3-(4-methyl-3-((8′-methyl-1′,1′-dioxido-7′-(2-(pyrrolidin-1-yl)ethoxy)spiro[cyclopropane-1,4′-pyrido[2,3-b][1,4,5]oxathiazepin]-2′(3′H)-yl)methyl)phenyl)propanoic Acid]	< 1 nM	57.5 nM
Cc1ccc([C@H](c2ccn3c(C4CC4)nnc3c2C)C(C)(C)C(=O)O)cc1CN1CC2(CC2)Oc2nc(OCCN3CCCC3)c(C)cc2S1(=O)=O (single isomer, unassigned) [Example 664, (*R)-3-(3-Cyclopropyl-8-methyl-[1,2,4]triazolo[4,3-a]pyridin-7-yl)-2,2-dimethyl-3-(4-methyl-3-((8′-methyl-1′,1′-dioxido-7′-(2-(pyrrolidin-1-yl)ethoxy)spiro[cyclopropane-1,4′-pyrido[2,3-b][1,4,5]oxathiazepin]-2′(3′H)-yl)methyl)phenyl)propanoic Acid]	1840 nM	> 20000 nM
CCn1nnc2c(C)c([C@@H](c3cc(CN4CC5(CC5)Oc5ncc(C)cc5S4(=O)=O)c(C)cn3)C(C)(C)C(=O)O)ccc21 (single isomer, unassigned) [Example 665, (*R)-3-(1-Ethyl-4-methyl-1H-benzo[d][1,2,3]triazol-5-yl)-2,2-dimethyl-3-(5-methyl-4-((8′-methyl-1′,1′-dioxidospiro[cyclopropane-1,4′-pyrido[2,3-b][1,4,5]oxathiazepin]-2′(3′H)-yl)methyl)pyridin-2-yl)propanoic Acid]	180 nM	497 nM
Cc1ccc(C(CC(=O)O)c2cc(OC(F)F)c3c(c2)nnn3C)cc1CN1C[C@H]2CCCCN2c2ncccc2S1(=O)=O (stereo in doubt) [Example 1, 3-(7-(Difluoromethoxy)-1-methyl-1H-benzo[d][1,2,3]triazol-5-yl)-3-(3-(((*R)-5,5-dioxido-7,7a,8,9,10,11-hexahydro-6H-dipyrido[2,1-d:2′,3′-f][1,2,5]thiadiazepin-6-yl)methyl)-4-methylphenyl)propanoic acid]	0.042 nM	35 nM
Cc1ccc(C(CC(=O)O)c2ccc3c(nnn3C3CC3)c2C)cc1CN1C[C@@H]2COCCN2c2ncccc2S1(=O)=O (stereo in doubt) [Example 23, 3-(1-Cyclopropyl-4-methyl-1H-benzo[d][1,2,3]triazol-5-yl)-3-(3-(((*R)-5,5-dioxido-7a,8,10,11-tetrahydro-[1,4]oxazino[3,4-d]pyrido[2,3-f][1,2,5]thiadiazepin-6(7H)-yl)methyl)-4-methylphenyl)propanoic Acid]	0.278 nM	8.3 nM
Cc1ccc([C@H](CC(=O)O)c2ccc3c(nnn3CC3CC3)c2C(F)F)cc1CN1CC2CCCN2c2ncccc2S1(=O)=O (stereo in doubt) [Example 66, (*S)-3-(1-(Cyclopropylmethyl)-4-(difluoromethyl-1H-benzo[d][1,2,3]triazol-5-yl)-3-(3-((R-5,5-dioxido-7a,8,9,10-tetrahydropyridi[2,3-f]pyrrolo[2,1-d][1,2,5]thiadiazepin-6(7H)-yl)methyl)-4-methylphenyl)propanoic Acid]	1 nM	260 nM
Cc1ccc([C@@H](CC(=O)O)c2ccc3c(nnn3CC3CC3)c2C(F)F)cc1CN1CC2CCCN2c2ncccc2S1(=O)=O (stereo in doubt) [Example 68, (*R)-3-(1-(Cyclopropylmethyl)-4-(difluoromethyl-1H-benzo[d][1,2,3]triazol-5-yl)-3-(3-((R-5,5-dioxido-7a,8,9,10-tetrahydropyridi[2,3-f]pyrrolo[2,1-d][1,2,5]thiadiazepin-6(7H)-yl)methyl)-4-methylphenyl)propanoic Acid]	1.4 nM	250 nM
Cc1ccc(C(CC(=O)O)c2ccc3c(nnn3CC3CC3)c2C)cc1CN1C[C@@]2(C)CCCN2c2ncccc2S1(=O)=O (stereo in doubt) [Example 80, 3-(1-(Cyclopropylmethyl)-4-methyl-1H-benzo[d][1,2,3]triazol-5-yl)-3-(4-methyl-3-(((*R)-7a-methyl-5,5-dioxido-7a,8,9,10-tetrahydropyrido[2,3-f]pyrrolo[2,1-d][1,2,5]thiadiazepin-6(7H)-yl)methyl)phenyl)propanoic Acid]	8 nM	306 nM
